From patent publication EP2465840A1, “Terpene ether” (CABB GmbH, priority 2010, dated 2012)

Tests used:
Dynamic surface tension = format: physicochemical
Text: (§1) Die Eigenschaften von mehreren erfindungsgemäßen Terpenethern werden in Tabelle 19 zusammengefasst und mit denen anderen Terpenethern verglichen. Tabelle 19

[1] = Foam height of terpene ether at t=0; format: physicochemical
Text: as §1

With CC(=O)OCC(COC1CC2CCC1(C)C2(C)C)OC(C)=O (stereo not drawn) [NP7, Diacetin-isobornytether] the “Dynamische Oberflächenspannung Blasenfrequenz 1 Hz” value (Dynamic surface tension) was 52 mN/m, the “Dynamische Oberflächenspannung Blasenfrequenz 3 Hz” value (Dynamic surface tension) was 57 mN/m and the “Schaumhöhe t=0” value [1] was 0 mm.
With CC1(C)C2CCC1(C)C(OCCOCCOCCO)C2 (stereo not drawn) [NP 6, Triethylenglykol-isobornylether] the “Dynamische Oberflächenspannung Blasenfrequenz 1 Hz” value (Dynamic surface tension) was 43 mN/m, the “Dynamische Oberflächenspannung Blasenfrequenz 3 Hz” value (Dynamic surface tension) was 45 mN/m and the “Schaumhöhe t=0” value [1] was 0 mm.
For CC1(C)C2CCC1(C)C(OCCOC1CC3CCC1(C)C3(C)C)C2 (stereo not drawn) [NP 23, Ethylenglykol-diisobornylether], the “Dynamische Oberflächenspannung Blasenfrequenz 1 Hz” value (Dynamic surface tension) was 66 mN/m, the “Dynamische Oberflächenspannung Blasenfrequenz 3 Hz” value (Dynamic surface tension) was 68 mN/m and the “Schaumhöhe t=0” value [1] was 6 mm.
For “Dipropylenglykol-düsobornylether [NP 22]”, the “Dynamische Oberflächenspannung Blasenfrequenz 1 Hz” value (Dynamic surface tension) was 64 mN/m, the “Dynamische Oberflächenspannung Blasenfrequenz 3 Hz” value (Dynamic surface tension) was 68 mN/m and the “Schaumhöhe t=0” value [1] was 0 mm.
In the case of Milchsäure-isobornylether [NP 14], the “Dynamische Oberflächenspannung Blasenfrequenz 1 Hz” value (Dynamic surface tension) was 45 mN/m, the “Dynamische Oberflächenspannung Blasenfrequenz 3 Hz” value (Dynamic surface tension) was 47 mN/m and the “Schaumhöhe t=0” value [1] was 0 mm.
With “S-(-)-Milchsäuremethylester-isobornylether [NP2]” the “Dynamische Oberflächenspannung Blasenfrequenz 1 Hz” value (Dynamic surface tension) was 65 mN/m, the “Dynamische Oberflächenspannung Blasenfrequenz 3 Hz” value (Dynamic surface tension) was 67 mN/m and the “Schaumhöhe t=0” value [1] was 0 mm.
With Tripropylenglykol-isobornylether [NP 3] the “Dynamische Oberflächenspannung Blasenfrequenz 1 Hz” value (Dynamic surface tension) was 45 mN/m, the “Dynamische Oberflächenspannung Blasenfrequenz 3 Hz” value (Dynamic surface tension) was 63 mN/m and the “Schaumhöhe t=0” value [1] was 0 mm.
